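Five compound concentrations were applied to cells in 96-well plates for 48 hours; endpoints were derived by simple linear interpolation of the resulting dose-response curve. At the GI50, growth is halved.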 The source made the active and inactive calls. Rule as the data show it: active = GI50 up to about 1.1 µM and inactive = higher.
Legend:
Experiment in all cases: inhibition of tumour cell growth, NCI panel, 48 h
A498 = system: A498
OVCAR-4 = system: OVCAR-4
RPMI-8226 = system: RPMI-8226
UACC-62 = system: UACC-62
SN12C = system: SN12C
HOP-92 = system: HOP-92
SW-620 = system: SW-620
CAKI-1 = system: CAKI-1
DMS-273 = system: DMS-273
SK-OV-3 = system: SK-OV-3
OVCAR-3 = system: OVCAR-3
UO-31 = system: UO-31
M14 = system: M14
SNB-19 = system: SNB-19
U-251 = system: U-251
HCT-116 = system: HCT-116
HL-60 = system: HL-60
SR = system: SR

Measured: GI50

Clc1ccc(C2=NOC3C4CCC(C4)C23)cc1 (configuration not stated)
inactive: A498 > 100 µM | OVCAR-4 > 100 µM | RPMI-8226 87.1 µM | UACC-62 > 100 µM | SN12C > 100 µM | HOP-92 > 100 µM | SW-620 > 100 µM | CAKI-1 > 100 µM | DMS-273 > 100 µM | SK-OV-3 > 100 µM | OVCAR-3 > 100 µM | UO-31 > 100 µM | M14 > 100 µM | SNB-19 > 100 µM | U-251 > 100 µM | HCT-116 > 100 µM | HL-60 56 µM | SR 61.2 µM

C=C1c2[nH]c3ccccc3c2CC(C(=O)O)N1C(O)c1ccc(S(=O)(=O)O)cc1 (configuration not stated)
inactive: A498 > 100 µM | OVCAR-4 > 100 µM | RPMI-8226 > 100 µM | UACC-62 > 100 µM | SN12C > 100 µM | HOP-92 22.1 µM | SW-620 > 100 µM | CAKI-1 > 100 µM | DMS-273 > 100 µM | SK-OV-3 > 100 µM | OVCAR-3 > 100 µM | UO-31 > 100 µM | M14 > 100 µM | SNB-19 > 100 µM | U-251 > 100 µM | HCT-116 > 100 µM | HL-60 > 100 µM | SR > 100 µM

O=C(Nc1ccccc1Br)c1cccc([N+](=O)[O-])c1O
inactive: A498 2.49 µM | OVCAR-4 3.01 µM | RPMI-8226 1.52 µM | UACC-62 1.91 µM | SN12C 3.94 µM | HOP-92 1.63 µM | SW-620 6.81 µM | CAKI-1 3.37 µM | DMS-273 3.53 µM | SK-OV-3 3.95 µM | OVCAR-3 2.07 µM | UO-31 1.89 µM | M14 4.32 µM | SNB-19 3.81 µM | U-251 2.85 µM | HCT-116 3.84 µM | HL-60 2.9 µM | SR 4.51 µM

CN(c1ccccc1)c1cc2ccccc2nn1
inactive: A498 > 100 µM | OVCAR-4 > 100 µM | RPMI-8226 70 µM | UACC-62 > 100 µM | SN12C > 100 µM | HOP-92 > 100 µM | SW-620 > 100 µM | CAKI-1 > 100 µM | DMS-273 > 100 µM | SK-OV-3 > 100 µM | OVCAR-3 53.8 µM | UO-31 29.3 µM | M14 > 100 µM | SNB-19 > 100 µM | U-251 81.8 µM | HCT-116 > 100 µM | HL-60 30.5 µM | SR > 100 µM

Reference: ChEMBL document CHEMBL1201862, “PubChem BioAssay data set” (2004)
